Test results as given in patent US20120276245A1, “METHOD FOR IMPROVED FERMENTATION” (STICHTING TOP INSTITUTE FOOD AND NUTRITION, priority 2009, published 2012).
Where two headings read alike, the source gives them in different places.

Key:
S. thermophilus = assay: Intervention study: acidification and growth of S. thermophilus mono-culture in reconstituted skim milk; assay type: cell-based, Streptococcus thermophilus; details: for Acidification by S. thermophilus: mono-culture in reconstituted skim milk, 37° C., 19 h, compounds listed in decreasing order of stimulation: formic acid, pyruvic acid, folic acid, Tween-20; for Growth of S. thermophilus in monoculture: in the absence of Lactobacillus bulgaricus
Experimental: (§1) Cultures of S. thermophilus, L. bulgaricus and a mixed culture were prepared in 0.8 volume reconstituted skim milk with 0.2 volume of a solution with compounds: Na-pyruvate (1.82 mM), Na-formate (1.47 mM), folic acid (1 mM), nucleobases (10 mg/L each) (all representing purine and pyrimidine metabolism), Tween-20 (105.9 μM) (as a supply of lauric acid), Tween-80 (110 mg/L) (as a supply of oleic acid). Here after these compounds are referred to as ‘interaction compounds’. The LCFAs oleic acid and lauric acid are poorly soluble and therefore we used Tween-20 and Tween-80. The effect of each of all interaction compounds on growth and acidification was tested in a single addition and a single omission strategy. Paired comparisons were made of a single compound versus nothing added (neg. control), and of all compounds minus one added versus all (pos. control). Acidification of quadruplicate cultures of 250 μL, was measured at 37° C. for 19 h in hydroplates (PreSens—Precision Sensing GmbH, Germany) where after CFU counts were determined using a rapid miniplating method (36). Significant differences in acidification were determined by comparing the maximal acidification rate using a two-tailed Students t-test (p=0.05). Similarly, significant differences were calculated between the final pH values and between the colony-forming units. A higher cell count, lower final pH, higher acidification rate and a shorter time to reach this rate are considered stimulatory effect of the intervention compared to the control.

L. bulgaricus = assay: Intervention study: acidification of L. bulgaricus mono-culture in reconstituted skim milk; assay type: cell-based, Lactobacillus delbrueckii subsp. bulgaricus; details: 37° C., 19 h
Experimental: as §1

[1] = test system: mixed culture of S. thermophilus and L. bulgaricus; assay: Intervention study: acidification of mixed culture in reconstituted skim milk; assay type: cell-based; details: 37° C., 19 h, stimulatory effects less than with the mono-cultures
Experimental: as §1, with “A higher cell count, lower final pH, higher acidification rate and a shorter time to reach this rate are considered stimulatory effect of the intervention compared to the control.” left out

[2] = test system: genes involved in biosynthesis of purines and folic acid cycling; details: formic acid supplied, both species
Excerpt: (§2) Microarrays were spotted on the Agilent 8x 15K platform (Agilent Technologies, Santa Clara, Calif., USA) with a custom probe design (AMADID 015342) comprising the sequences of both S. thermophilus CNRZ1066 (released by NCBI, genbank accession no. NC 006449) and L. bulgaricus ATCC BAA-365 (released by JGI, genbank accession no. NC 008529). The probes were designed with the objective to minimize cross-hybridization: the probes were species-specific, i.e. all probes were designed as 60-mers with a target score of 100% to the target gene, allowing no binding of cDNA that is 1 base different (mismatch) if the correct hybridization temperature (65° C.) and washing temperature (37° C.) are used. In total there are 5438 probes representing 1899 genes of S. thermophilus and 4028 spots representing 1709 genes of L. bulgaricus. Most genes are represented by 3 probes or more. Only 55 genes in S. thermophilus and 77 in L. bulgaricus are represented by one probe and only 5 genes of S. thermophilus and 31 genes of L. bulgaricus are lacking. The selectivity of strain specific gene detection was tested by a series of transcriptome profiling experiments of samples from MRS-grown mono-cultures of both strains. […] They were excluded from further analysis.
(§3) The high protein content of milk and the polysaccharide production by the grown microorganisms make cell harvesting problematic. Furthermore, sampling and quenching need to be carried out rapidly in order to prevent the introduction of technical errors in a transcriptomics experiment. Several procedures have been developed to “clear” the milk to enable cell harvest by centrifugation without the contamination with milk solids. However, milk cleaning procedures are time consuming and require drastic changes in pH and the addition of large quantities of sodium citrate.

[3] = test system: pfl (pyruvate formate lyase gene); details: mixed culture supplemented with formic acid
Excerpt: as §2, §3

[4] = test system: pflA (pyruvate formate lyase gene); details: mixed culture supplemented with formic acid
Excerpt: as §2, §3

Compound	Acidification by S. thermophilus (S. thermophilus)	Growth of S. thermophilus in monoculture (S. thermophilus)	L. bulgaricus acidification (L. bulgaricus)	Acidification of the mixed cultures [1]	Expression of genes involved in biosynthesis of purines and folic acid cycling ([2]; early (second) exponential phase)	Expression of genes involved in biosynthesis of purines and folic acid cycling ([2]; mid exponential phase)	Expression of pfl down-regulated when formic acid was supplied [3] [fold]	Expression of pflA down-regulated when formic acid was supplied [4] [fold]
Nc1nc2ncc(CNc3ccc(C(=O)N[C@@H](CCC(=O)O)C(=O)O)cc3)nc2c(=O)[nH]1 [folic acid]	stimulated	stimulate growth	small stimulatory effect	–	–	–	–	–
O=CO [formic acid]	stimulated	–	stimulated the most	still stimulated	lower	higher	3.8	5.7
CC(=O)C(=O)O [pyruvic acid]	stimulated	stimulate growth	small stimulatory effect	still stimulated	–	–	–	–
Tween-20	stimulated	stimulate growth	small stimulatory effect	–	–	–	–	–
Tween-80	–	–	small stimulatory effect	–	–	–	–	–
